The values below come from patent publication US20230391760A1, “HETEROCYCLIC GLP-1 AGONISTS” (Gasherbrum Bio, Inc., priority 2020, published 2023).

One may read the EC50 as the concentration that produces a half-maximal response. A higher EC50 goes with weaker potency.

In the experiment the target is GLP-1 Receptor (Homo sapiens, UniProt P43220). Nature of the experiment: GLP-1R agonist cAMP stimulation assay (HEK293/GLP1R/CRE-LUC cells, cAMP dynamic 2 Kit). Type of experiment: cell-based. The conditions noted are these: HEK293/CRE-Luc cell line stably expressing the GLP-1 Receptor, 30 min at 37° C. The procedure, abridged: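 cAMP measured by HTRF competition (d2-labelled cAMP with cryptate antibody, 1 h, room temperature, protected from light). Before that, GLP1R/CRE-Luc HEK293 cells (1000/well) were exposed for 30 min at 37 °C to half-log compound dilutions in DPBS containing IBMX 0.5 mM and BSA 0.1%.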
Sequence of GLP-1 Receptor (P43220 24-463, species assumed): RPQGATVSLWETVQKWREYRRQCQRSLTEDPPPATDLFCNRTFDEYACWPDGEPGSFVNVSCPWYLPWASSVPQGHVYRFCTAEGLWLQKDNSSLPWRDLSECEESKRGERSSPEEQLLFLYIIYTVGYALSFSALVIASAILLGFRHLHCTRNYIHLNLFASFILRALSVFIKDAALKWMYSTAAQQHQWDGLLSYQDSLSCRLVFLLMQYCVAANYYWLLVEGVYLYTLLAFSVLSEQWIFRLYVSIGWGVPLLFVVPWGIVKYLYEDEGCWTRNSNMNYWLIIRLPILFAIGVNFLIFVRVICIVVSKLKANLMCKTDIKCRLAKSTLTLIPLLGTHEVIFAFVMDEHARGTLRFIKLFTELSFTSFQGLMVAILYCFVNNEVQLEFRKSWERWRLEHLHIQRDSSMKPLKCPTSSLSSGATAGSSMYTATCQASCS
As to `Fc1cc(Cl)ccc1COc1cc(C2=CCN(Cc3nc4cc(-c5nnc(C(F)(F)F)[nH]5)ncc4n3C[C@@H]3CCO3)CC2)ccc1F` [Compound 297a, 4-{3-[(4-chloro-2-fluorophenyl)methoxy]-4-fluorophenyl}-1-[(3-{[(2S)-oxetan-2-yl]methyl}-6-[5-(trifluoromethyl)-4H-1,2,4-triazol-3-yl]-3H-imidazo[4,5-c]pyridin-2-yl)methyl]-1,2,3,6-tetrahydropyridine], the concentration for a half-maximal effect (EC50) was 0.098 nM.

For the compound `O=c1[nH]c(-c2cc3nc(CN4CC=C(c5ccc(F)c(OCc6ccc(Cl)cc6F)c5)CC4)n(C[C@@H]4CCO4)c3cn2)no1` [Compound 299a, 3-{2-[(4-{3-[(4-chloro-2-fluorophenyl)methoxy]-4-fluorophenyl}-1,2,3,6-tetrahydropyridin-1-yl)methyl]-3-{[(2S)-oxetan-2-yl]methyl}-3H-imidazo[4,5-c]pyridin-6-yl}-4,5-dihydro-1,2,4-oxadiazol-5-one], it took 0.26 nM to reach a half-maximal effect (EC50). In turn, `N#Cc1ccc(COc2cc(C3=CCN(Cc4nc5cc(-c6nnc(C(F)(F)F)[nH]6)ncc5n4C[C@@H]4CCO4)CC3)ccc2F)c(F)c1` [Compound 300a, 3-fluoro-4-[(2-fluoro-5-{1-[(3-{[(2S)-oxetan-2-yl]methyl}-6-[5-(trifluoromethyl)-4H-1,2,4-triazol-3-yl]-3H-imidazo[4,5-c]pyridin-2-yl)methyl]-1,2,3,6-tetrahydropyridin-4-yl}phenoxy)methyl]benzonitrile] came in with an EC50 of 0.1 nM. As to `Cc1nc(-c2nnc(C(F)(F)F)[nH]2)cc2nc(CN3CCC(c4cccc5c4O[C@@](C)(c4ccc(Cl)cc4F)O5)CC3)n(C[C@@H]3CCO3)c12` [Compound 302a, 4-[(2S)-2-(4-chloro-2-fluorophenyl)-2-methyl-2H-1,3-benzodioxol-4-yl]-1-[(4-methyl-3-{[(2S)-oxetan-2-yl]methyl}-6-[5-(trifluoromethyl)-4H-1,2,4-triazol-3-yl]-3H-imidazo[4,5-c]pyridin-2-yl)methyl]piperidine], the 50% effective concentration (EC50) was found to be 0.17 nM. The compound `Fc1cc(Cl)ccc1COc1cccc(C2=CCN(Cc3nc4cc(-c5nnc(C(F)(F)F)[nH]5)ncc4n3C[C@@H]3CCO3)CC2)c1` [Compound 307a, 4-{3-[(4-chloro-2-fluorophenyl)methoxy]phenyl}-1-[(3-{[(2S)-oxetan-2-yl]methyl}-6-[5-(trifluoromethyl)-4H-1,2,4-triazol-3-yl]-3H-imidazo[4,5-c]pyridin-2-yl)methyl]-1,2,3,6-tetrahydropyridine] yielded an EC50 of 0.26 nM. This EC50 lies about 1.5-fold higher than the previous one. For `O=c1[nH]c(-c2cc3nc(CN4CC=C(c5cccc(OCc6ccc(Cl)cc6F)c5)CC4)n(C[C@@H]4CCO4)c3cn2)no1` [Compound 308a, 3-{2-[(4-{3-[(4-chloro-2-fluorophenyl)methoxy]phenyl}-1,2,3,6-tetrahydropyridin-1-yl)methyl]-3-{[(2S)-oxetan-2-yl]methyl}-3H-imidazo[4,5-c]pyridin-6-yl}-4,5-dihydro-1,2,4-oxadiazol-5-one], a half-maximal response (EC50) required 0.5 nM. Turning to `N#Cc1ccc(COc2cccc(C3CCN(Cc4nc5cc(-c6nnc(C(F)(F)F)[nH]6)ncc5n4C[C@@H]4CCO4)CC3)n2)c(F)c1` [Compound 313a, 3-fluoro-4-{[(6-{1-[(3-{[(2S)-oxetan-2-yl]methyl}-6-[5-(trifluoromethyl)-4H-1,2,4-triazol-3-yl]-3H-imidazo[4,5-c]pyridin-2-yl)methyl]piperidin-4-yl}pyridin-2-yl)oxy]methyl}benzonitrile], the 50% effective concentration (EC50) amounted to 0.012 nM.

With `O=c1[nH]c(-c2cc3nc(CN4CCC(c5cccc(OCc6ccc(Cl)cc6F)n5)CC4)n(C[C@@H]4CCO4)c3cn2)no1` [Compound 316a, 3-{2-[(4-{6-[(4-chloro-2-fluorophenyl)methoxy]pyridin-2-yl}piperidin-1-yl)methyl]-3-{[(2S)-oxetan-2-yl]methyl}-3H-imidazo[4,5-c]pyridin-6-yl}-4,5-dihydro-1,2,4-oxadiazol-5-one], a half-maximal response (EC50) required 0.037 nM. To `N#Cc1ccc(COc2cccc(C3=CCN(Cc4nc5cc(-c6nnc(C(F)(F)F)[nH]6)cnc5n4C[C@@H]4CCO4)CC3)c2)c(F)c1` [Compound 317a, 3-fluoro-4-[(3-{1-[(3-{[(2S)-oxetan-2-yl]methyl}-6-[5-(trifluoromethyl)-4H-1,2,4-triazol-3-yl]-3H-imidazo[4,5-b]pyridin-2-yl)methyl]-1,2,3,6-tetrahydropyridin-4-yl}phenoxy)methyl]benzonitrile] belongs 0.11 nM. `N#Cc1ccc(COc2cccc(C3=CCN(Cc4nc5cc(-c6noc(=O)[nH]6)cnc5n4C[C@@H]4CCO4)CC3)c2)c(F)c1` [Compound 318a, 3-fluoro-4-[(3-{1-[(3-{[(2S)-oxetan-2-yl]methyl}-6-(5-oxo-4,5-dihydro-1,2,4-oxadiazol-3-yl)-3H-imidazo[4,5-b]pyridin-2-yl)methyl]-1,2,3,6-tetrahydropyridin-4-yl}phenoxy)methyl]benzonitrile]: it took 10 nM to reach a half-maximal effect (EC50). In the case of `Fc1cc(Cl)ccc1COc1cccc(C2=CCN(Cc3nc4cc(-c5nnc(C(F)(F)F)[nH]5)cnc4n3C[C@@H]3CCO3)CC2)c1` [Compound 319a, 4-{3-[(4-chloro-2-fluorophenyl)methoxy]phenyl}-1-[(3-{[(2S)-oxetan-2-yl]methyl}-6-[5-(trifluoromethyl)-4H-1,2,4-triazol-3-yl]-3H-imidazo[4,5-b]pyridin-2-yl)methyl]-1,2,3,6-tetrahydropyridine], a half-maximal response (EC50) required 0.36 nM. In the case of `O=c1[nH]c(-c2cnc3c(c2)nc(CN2CC=C(c4cccc(OCc5ccc(Cl)cc5F)c4)CC2)n3C[C@@H]2CCO2)no1` [Compound 320a, 3-{2-[(4-{3-[(4-chloro-2-fluorophenyl)methoxy]phenyl}-1,2,3,6-tetrahydropyridin-1-yl)methyl]-3-{[(2S)-oxetan-2-yl]methyl}-3H-imidazo[4,5-b]pyridin-6-yl}-4,5-dihydro-1,2,4-oxadiazol-5-one] it was 6.8 nM; in that of `N#Cc1ccc(COc2cccc(C3=CCN(Cc4nc5cc(-c6nnc(C(F)(F)F)[nH]6)cnc5n4C[C@@H]4CCO4)CC3)n2)c(F)c1` [Compound 321a, 3-fluoro-4-[({1′-[(3-{[(2S)-oxetan-2-yl]methyl}-6-[5-(trifluoromethyl)-4H-1,2,4-triazol-3-yl]-3H-imidazo[4,5-b]pyridin-2-yl)methyl]-1′,2′,3′,6′-tetrahydro-[2,4′-bipyridin]-6-yl}oxy)methyl]benzonitrile], 0.022 nM; in that of `N#Cc1ccc(COc2cccc(C3=CCN(Cc4nc5cc(-c6noc(=O)[nH]6)cnc5n4C[C@@H]4CCO4)CC3)n2)c(F)c1` [Compound 322a, 3-fluoro-4-[({1′-[(3-{[(2S)-oxetan-2-yl]methyl}-6-(5-oxo-4,5-dihydro-1,2,4-oxadiazol-3-yl)-3H-imidazo[4,5-b]pyridin-2-yl)methyl]-1′,2′,3′,6′-tetrahydro-[2,4′-bipyridin]-6-yl}oxy)methyl]benzonitrile], 0.078 nM. In the case of `Fc1cc(Cl)ccc1COc1cccc(C2=CCN(Cc3nc4cc(-c5nnc(C(F)(F)F)[nH]5)cnc4n3C[C@@H]3CCO3)CC2)n1` [Compound 323a, 6-[(4-chloro-2-fluorophenyl)methoxy]-1′-[(3-{[(2S)-oxetan-2-yl]methyl}-6-[5-(trifluoromethyl)-4H-1,2,4-triazol-3-yl]-3H-imidazo[4,5-b]pyridin-2-yl)methyl]-1′,2′,3′,6′-tetrahydro-2,4′-bipyridine] it was 0.016 nM. As for `O=c1[nH]c(-c2cnc3c(c2)nc(CN2CC=C(c4cccc(OCc5ccc(Cl)cc5F)n4)CC2)n3C[C@@H]2CCO2)no1` [Compound 324a, 3-[2-({6-[(4-chloro-2-fluorophenyl)methoxy]-1′,2′,3′,6′-tetrahydro-[2,4′-bipyridin]-1′-yl}methyl)-3-{[(2S)-oxetan-2-yl]methyl}-3H-imidazo[4,5-b]pyridin-6-yl]-4,5-dihydro-1,2,4-oxadiazol-5-one], the midpoint of the response, the EC50, lay at 0.11 nM. To `N#Cc1ccc(COc2cccc(C3CCN(Cc4nc5cc(-c6nnc(C(F)(F)F)[nH]6)cnc5n4C[C@@H]4CCO4)CC3)n2)c(F)c1` [Compound 325a, 3-fluoro-4-{[(6-{1-[(3-{[(2S)-oxetan-2-yl]methyl}-6-[5-(trifluoromethyl)-4H-1,2,4-triazol-3-yl]-3H-imidazo[4,5-b]pyridin-2-yl)methyl]piperidin-4-yl}pyridin-2-yl)oxy]methyl}benzonitrile] belongs 0.012 nM; to `Fc1cc(Cl)ccc1COc1cccc(C2CCN(Cc3nc4cc(-c5nnc(C(F)(F)F)[nH]5)cnc4n3C[C@@H]3CCO3)CC2)n1` [Compound 327a, 2-[(4-chloro-2-fluorophenyl)methoxy]-6-{1-[(3-{[(2S)-oxetan-2-yl]methyl}-6-[5-(trifluoromethyl)-4H-1,2,4-triazol-3-yl]-3H-imidazo[4,5-b]pyridin-2-yl)methyl]piperidin-4-yl}pyridine], 0.013 nM; to `O=c1[nH]c(-c2cnc3c(c2)nc(CN2CCC(c4cccc(OCc5ccc(Cl)cc5F)n4)CC2)n3C[C@@H]2CCO2)no1` [Compound 328a, 3-{2-[(4-{6-[(4-chloro-2-fluorophenyl)methoxy]pyridin-2-yl}piperidin-1-yl)methyl]-3-{[(2S)-oxetan-2-yl]methyl}-3H-imidazo[4,5-b]pyridin-6-yl}-4,5-dihydro-1,2,4-oxadiazol-5-one], 0.37 nM. `CC1(c2ccc(C#N)cc2F)Oc2cccc(C3CCN(Cc4nc5cc(-c6noc(=O)[nH]6)cnc5n4C[C@@H]4CCO4)CC3)c2O1` (stereo partly drawn) [Compound 329a, 3-fluoro-4-(2-methyl-4-{1-[(3-{[(2S)-oxetan-2-yl]methyl}-6-(5-oxo-4,5-dihydro-1,2,4-oxadiazol-3-yl)-3H-imidazo[4,5-b]pyridin-2-yl)methyl]piperidin-4-yl}-2H-1,3-benzodioxol-2-yl)benzonitrile]: the half-maximal effective concentration (EC50) was determined as 0.25 nM.
